In US20240316008A1, “TREATMENT OF SYSTEMIC IMMUNE ACTIVATION SYNDROMES” (TRANQUIS THERAPEUTICS, INC., priority 2020, published 2024):

Columns and labels:
IL-6 [1] = assay: LPS-stimulated IL-6 secretion from human PBMC (ELISA); type: cell-based; details: human PBMC from a first donor, 1 ng/ml LPS, 24h
Description: Briefly, 20,000 human PBMC were aliquoted into each well. LPS was added at 1 ng/ml and the cells incubated for 24h in the presence of LPS and TQS-168 or one of its metabolites. Readouts were human IL-6 ELISA and human TNFα ELISA. For assay, supernatants were diluted in culture medium. The supernatant dilution for the IL-6 ELISA was 1:8, and 1:2 for the human TNFα ELISA.

IL-6 [2] = assay: Spontaneous IL-6 release of PBMCs from an ALS patient (ELISA); type: cell-based, human; details: 1 μM, 24 hours, no LPS, versus medium only
Description: PBMCs from an ALS patient were used for this study. Whole blood samples were collected from the patient and processed for PBMC isolation with Ficoll gradient method. PBMC samples were stored in liquid nitrogen at […] for subsequent analysis of IL-6 production.
Frozen PBMC samples were thawed and rested at 37° C. […] Therefore PBMC stimulation by LPS was not required to evaluate the effects of TQS-168 and metabolite TQS-621 on IL-6 production. PBMC samples (5×10^5 cells per well) were incubated with medium only, TQS-168 (1 μM) or TQS-621 (1 μM). After 24 hours, supernatants were collected for quantification of IL-6 levels by ELISA.

CC(C)(C)c1ccc(-c2nc3ccccc3[nH]2)cc1 [TQS-168, 2-(4-tert-butylphenyl)-1H-benzimidazole] was tested, and the “LPS-stimulated IL-6 secretion from PBMCs” value (IL-6 [1]) was “inhibition” and the “spontaneous release of IL-6 (amount of IL-6 produced)” value (IL-6 [2]) was “reduction”.
